Reference: article PMC9832345 (RSC Advances, 2023)

System: third instar larvae of Spodoptera litura
Assay: Leaf-dip larvicidal assay
Assay type: in vivo
Details: for Eating area (%): 96 h

Row | Structure (SMILES) | Eating area (%) (6.25 ppm) | Eating area (%) (12.5 ppm) | eating area (concentration not given)
1 | CNC(=O)c1cc(Cl)cc(C)c1NC(=O)c1cc(Br)nn1-c1ncccc1Cl [Chlorantraniliprole, chlorantraniliprole] | 0–5% | 0–5% | 0–5%
2 | Cc1cc(Cl)cc(S(C)(=O)=O)c1NC(=O)c1cc(Br)nn1-c1ncccc1Cl [Compound 8] | 0–5% | 0–5% | –
